{"source": "patent US20160313301A1", "about": "“METHOD FOR PREDICTING ANTITUMOR EFFICACY OF HSP90 INHIBITOR IN CANCER TREATMENT” (NIPPON KAYAKU KABUSHIKI KAISHA, priority 2013, published 2016)", "format_in_all_cases": "in vivo", "key": {"[1]": {"system": "human lung cancer cells NCI-H1975", "assay": "Anti-tumor test in mice transplanted subcutaneously with tumor (NCI-H1975)", "settings": "NCI-H1975 s.c. in mice; 150 mg/kg tail vein three times at 7 day intervals", "description": "(§1) Human ovarian cancer cell lines OC-10-JCK, OC-11-JCK, and TOGY-18, and a human breast cancer cell line MC-19-JCK were obtained from Central Institute for Experimental Animals. Cryopreserved tumor pieces were thawed, and then OC-10-JCK, OC-11-JCK, and MC-19-JCK were transplanted subcutaneously to SCID mice, while TOGY-18 was transplanted subcutaneously to nude mice. After the tumors were grown, the tumors were removed and cut into tumor pieces. The tumor pieces were transplanted subcutaneously to SCID mice or nude mice with trocars. The tumors were maintained by repeated transplantation in the same manner as described above to prepare tumors to be transplanted. Human ovarian cancer cell lines ES-2, SK-OV-3, OV-90, and TOV-21G, and a human lung cancer cell line NCI-H1975 were obtained from American Type Culture Collection (ATCC). The SK-OV-3 and NCI-H1975 cell lines were grown in recommended culture media, of which about 1×10^7 cells were suspended into HBSS and then injected subcutaneously to SCID mice. After the cells formed tumors, the tumors were removed and cut into tumor pieces. The tumor pieces were transplanted subcutaneously to SCID mice with trocars. The tumors were maintained by repeated transplantation in the same manner as described above to prepare tumors to be transplanted. […]"}, "[2]": {"system": "human ovarian cancer cells OC-11-JCK/PTX", "assay": "Anti-tumor test in mice transplanted subcutaneously with tumor (OC-11-JCK/PTX)", "settings": "OC-11-JCK/PTX s.c. in mice; 125 mg/kg tail vein three times at 7 day intervals", "description": "Human ovarian cancer cell lines OC-10-JCK, OC-11-JCK, and TOGY-18, and a human breast cancer cell line MC-19-JCK were obtained from Central Institute for Experimental Animals. Cryopreserved tumor pieces were thawed, and then OC-10-JCK, OC-11-JCK, and MC-19-JCK were transplanted subcutaneously to SCID mice, while TOGY-18 was transplanted subcutaneously to nude mice. After the tumors were grown, the tumors were removed and cut into tumor pieces. The tumor pieces were transplanted subcutaneously to SCID mice or nude mice with trocars. The tumors were maintained by repeated transplantation in the same manner as described above to prepare tumors to be transplanted. Human ovarian cancer cell lines ES-2, SK-OV-3, OV-90, and TOV-21G, and a human lung cancer cell line NCI-H1975 were obtained from American Type Culture Collection (ATCC). The SK-OV-3 and NCI-H1975 cell lines were grown in recommended culture media, of which about 1×10^7 cells were suspended into HBSS and then injected subcutaneously to SCID mice. After the cells formed tumors, the tumors were removed and cut into tumor pieces. The tumor pieces were transplanted subcutaneously to SCID mice with trocars. The tumors were maintained by repeated transplantation in the same manner as described above to prepare tumors to be transplanted. The OV-90 cell line was grown in a recommended culture medium, of which about 1×10^6 cells were suspended into HBSS and then injected subcutaneously to SCID mice. After the cells formed a tumor, the tumor was subjected to an anti-tumor test. The TOV-21G cell line was grown in a recommended culture medium, of which about 1×10^7 cells were suspended into HBSS and then injected subcutaneously to SCID mice. After the cells formed a tumor, the tumor was subjected to the anti-tumor test. The ES-2 cell line was grown in a recommended culture medium, suspended into HBSS, and then injected subcutaneously to nude mice. After the cells formed a tumor, the tumor was removed and cut into tumor pieces. The tumor pieces were transplanted subcutaneously to nude mice with a trocar. […]"}, "[3]": {"system": "human ovarian cancer cells TOGY-18", "assay": "Anti-tumor test in mice transplanted subcutaneously with tumor (TOGY-18)", "settings": "TOGY-18 s.c. in mice; 125 mg/kg tail vein three times at 7 day intervals", "description": "as §1"}, "[4]": {"system": "human breast cancer cells MC-19-JCK", "assay": "Anti-tumor test in mice transplanted subcutaneously with tumor (MC-19-JCK)", "settings": "MC-19-JCK s.c. in mice; administered once at 125 mg/kg", "description": "as §1"}, "[5]": {"system": "human breast cancer cells JIMT-1", "assay": "Anti-tumor test in mice transplanted subcutaneously with tumor (JIMT-1)", "settings": "JIMT-1 s.c. in mice; 125 mg/kg tail vein three times at 7 day intervals", "description": "as §1"}}}
{"smiles": "CC(C)c1cc(-c2n[nH]c(=O)n2-c2ccc3c(ccn3C)c2)c(O)cc1O", "note": "[Ganetespib, reference compound]", "values": [{"measurement": "T/C % (lowest value from the beginning to the 21st day of administration)", "setting": "[1]", "result": 44.0, "unit": "%"}, {"measurement": "T/C % (lowest value from the beginning to the 21st day of administration)", "setting": "[2]", "result": 84.0, "unit": "%"}, {"measurement": "T/C % (lowest value from the beginning to the 21st day of administration)", "setting": "[3]", "result": 67.7, "unit": "%"}, {"measurement": "T/C % (lowest value from the beginning to the 21st day of administration)", "setting": "[4]", "result": 19.8, "unit": "%"}, {"measurement": "T/C % (lowest value from the beginning to the 21st day of administration)", "setting": "[5]", "result": 56.6, "unit": "%"}]}
